Key:
[1] = target: T1, RXRγ (UniProt P28705); experiment: ligand binding assay, RXRγ; conditions: read-out: RXR Bind Ki (nM) γ
T1 sequence (P28705 1-463): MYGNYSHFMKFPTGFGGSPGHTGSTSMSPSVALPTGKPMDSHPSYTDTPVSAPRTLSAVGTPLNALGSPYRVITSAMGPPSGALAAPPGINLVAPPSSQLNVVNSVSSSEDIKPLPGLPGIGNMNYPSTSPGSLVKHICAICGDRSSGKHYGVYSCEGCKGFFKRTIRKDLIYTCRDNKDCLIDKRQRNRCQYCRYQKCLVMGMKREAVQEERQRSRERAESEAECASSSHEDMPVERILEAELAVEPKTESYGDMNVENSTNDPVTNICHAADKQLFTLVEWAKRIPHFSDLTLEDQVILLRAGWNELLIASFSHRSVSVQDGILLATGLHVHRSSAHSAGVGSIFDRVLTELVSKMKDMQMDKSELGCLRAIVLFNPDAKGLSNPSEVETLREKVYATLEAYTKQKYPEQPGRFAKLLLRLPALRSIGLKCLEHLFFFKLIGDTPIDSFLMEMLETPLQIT
Source text: (§2) The results obtained in this assay are expressed in EC50 numbers, as they are also in the chimeric receptor transactivation assay. The results of ligand binding assay are expressed in Kd numbers.
(§3) Particularly, the transactivation data pertaining to RAR receptors were obtained in the chimeric assay, and the data pertaining to transactivation of RXR receptors were obtained in the holoreceptor transactivation assay.

[2] = target: T1, RXRγ; experiment: holoreceptor transactivation assay, RXRγ; type: cell-based; conditions: NA = Not Active, read-out: RXR Trans. EC50 (nM) γ
Source text: (§4) The results obtained in this assay are expressed in EC50 numbers, as they are also in the chimeric receptor transactivation assay.

[3] = target: T2, RXRβ (UniProt P28704); experiment: ligand binding assay, RXRβ; conditions: read-out: RXR Bind Ki (nM) β
T2 sequence (P28704 1-520): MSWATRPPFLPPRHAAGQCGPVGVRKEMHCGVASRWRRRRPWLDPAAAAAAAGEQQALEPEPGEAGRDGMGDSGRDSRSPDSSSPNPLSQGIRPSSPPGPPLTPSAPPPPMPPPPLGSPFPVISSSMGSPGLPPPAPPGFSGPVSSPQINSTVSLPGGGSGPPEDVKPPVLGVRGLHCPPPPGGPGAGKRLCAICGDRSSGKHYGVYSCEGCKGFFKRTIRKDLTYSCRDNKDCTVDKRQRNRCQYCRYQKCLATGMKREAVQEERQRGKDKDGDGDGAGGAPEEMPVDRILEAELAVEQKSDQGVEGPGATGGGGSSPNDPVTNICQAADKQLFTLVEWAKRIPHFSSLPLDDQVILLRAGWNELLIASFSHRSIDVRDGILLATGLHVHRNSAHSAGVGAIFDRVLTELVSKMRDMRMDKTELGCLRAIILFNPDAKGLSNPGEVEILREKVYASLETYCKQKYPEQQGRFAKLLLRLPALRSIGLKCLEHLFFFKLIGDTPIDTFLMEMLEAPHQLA
Source text: as §2, §3

[4] = target: T2, RXRβ; experiment: holoreceptor transactivation assay, RXRβ; type: cell-based; conditions: NA = Not Active, read-out: RXR Trans. EC50 (nM) β
Source text: as §4

[5] = target: RARγ (Homo sapiens, UniProt P13631); experiment: chimeric receptor transactivation assay, RARγ; type: cell-based; conditions: NA = Not Active, read-out: RAR Trans. EC50 (nM) γ
Source text: (§1) The specification of U.S. Pat. No. 5,455,265 is hereby expressly incorporated by reference.

[6] = target: RARβ (Homo sapiens, UniProt P10826); experiment: chimeric receptor transactivation assay, RARβ; type: cell-based; conditions: NA = Not Active, read-out: RAR Trans. EC50 (nM) β
Source text: as §1

RARβ, sequence (P19793 whole entry): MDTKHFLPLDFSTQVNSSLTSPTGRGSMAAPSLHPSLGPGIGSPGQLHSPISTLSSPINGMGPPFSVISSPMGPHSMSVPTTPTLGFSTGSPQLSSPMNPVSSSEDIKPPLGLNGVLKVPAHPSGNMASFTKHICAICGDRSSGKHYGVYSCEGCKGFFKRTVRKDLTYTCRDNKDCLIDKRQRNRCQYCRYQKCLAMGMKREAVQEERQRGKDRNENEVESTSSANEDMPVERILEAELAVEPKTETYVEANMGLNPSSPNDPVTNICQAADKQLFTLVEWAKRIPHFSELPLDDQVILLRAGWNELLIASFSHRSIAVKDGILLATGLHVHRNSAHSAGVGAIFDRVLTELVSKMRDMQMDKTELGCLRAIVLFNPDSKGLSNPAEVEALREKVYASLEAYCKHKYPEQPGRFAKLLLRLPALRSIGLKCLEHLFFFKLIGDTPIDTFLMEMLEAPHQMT
RARβ, sequence (P10826 154-455): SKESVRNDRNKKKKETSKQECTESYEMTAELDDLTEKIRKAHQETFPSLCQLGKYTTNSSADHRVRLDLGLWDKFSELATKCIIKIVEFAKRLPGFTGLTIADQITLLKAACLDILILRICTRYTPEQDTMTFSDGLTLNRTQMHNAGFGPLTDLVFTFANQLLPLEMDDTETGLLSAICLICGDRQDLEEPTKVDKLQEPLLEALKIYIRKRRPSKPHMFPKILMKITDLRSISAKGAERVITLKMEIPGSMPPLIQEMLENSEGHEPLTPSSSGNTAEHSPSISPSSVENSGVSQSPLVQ
RARγ, sequence (P13631 whole entry): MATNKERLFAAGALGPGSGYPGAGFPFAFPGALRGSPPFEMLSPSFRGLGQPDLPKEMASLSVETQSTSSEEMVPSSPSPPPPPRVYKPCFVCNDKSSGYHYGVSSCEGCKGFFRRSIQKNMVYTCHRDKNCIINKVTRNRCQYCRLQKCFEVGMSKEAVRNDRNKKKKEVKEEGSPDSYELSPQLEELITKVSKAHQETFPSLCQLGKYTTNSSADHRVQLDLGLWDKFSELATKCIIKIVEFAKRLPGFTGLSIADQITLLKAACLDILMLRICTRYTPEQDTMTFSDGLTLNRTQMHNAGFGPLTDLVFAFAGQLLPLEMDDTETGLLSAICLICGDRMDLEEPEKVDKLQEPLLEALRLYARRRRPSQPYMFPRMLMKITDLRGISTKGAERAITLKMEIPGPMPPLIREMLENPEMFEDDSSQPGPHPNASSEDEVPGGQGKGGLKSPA
RARγ, sequence (P19793 whole entry, further chain): as the sequence (P19793 whole entry) above

| Structure (SMILES) | Ki [3] [nM] | EC50 [4] [nM] | also measured |
| --- | --- | --- | --- |
| CC1=CCC(C)(C)c2cc(N(C)c3ccc(C(=O)O)cc3)c(C)cc21 [Compound 44, 4-[Methyl(3,5,8,8-tetramethyl-7,8-dihydronaphthalen-2-yl)amino]benzoic acid] | > 1000 | – | Ki [1]: > 1000 nM; EC50 [2]: > 1000 nM |
| CCN(c1ccc(C(=O)O)cc1)c1cc2c(cc1C)C(C)=CCC2(C)C [Compound 45, 4-[Ethyl(3,5,8,8-tetramethyl-7,8-dihydronaphthalen-2-yl)amino]benzoic acid] | > 1000 | – | Ki [1]: > 1000 nM; EC50 [2]: > 1000 nM |
| CCCN(c1ccc(C(=O)O)cc1)c1cc2c(cc1C)C(C)=CCC2(C)C [Compound 46, 4-[n-Propyl(3,5,8,8-tetramethyl-7,8-dihydronaphthalen-2-yl)amino]benzoic acid] | > 10000 | > 1000 | Ki [1]: > 10000 nM |
| CC1=CCC(C)(C)c2cc(N(CC3CC3)c3ccc(C(=O)O)cc3)c(C)cc21 [Compound 47, 4-[Cyclopropylmethyl(3,5,8,8-tetramethyl-7,8-dihydronaphthalen-2-yl)amino]benzoic acid] | > 1000 | – | – |
| CC1=CCC(C)(C)c2cc(N(C)c3ccc(C(=O)O)cc3)ccc21 [Compound 67, 4-[Methyl-(5,8,8-trimethyl-7,8-dihydro-naphthalen-2-yl)-amino]-benzoic acid] | > 1000 | – | – |
| C=CCN(c1ccc(C(=O)O)cc1)c1ccc2c(c1)C(C(C)(C)C)=CCC2(C)C [Compound 90, 4-[(8-t-Butyl-5,5-dimethyl-5,6-dihydronaphthalen-2-yl)(prop-2-en-yl)lamino]-benzoic acid] | – | – | EC50 [5]: > 1000 nM; EC50 [6]: > 1000 nM |
| CCCCCCOc1cc2c(cc1N(CCC)c1ccc(C(=O)O)cc1)C(C)=CCC2(C)C [Compound 145, 4-[(3-n-Hexyloxy-5,5,8-trimethyl-5,6-dihydronaphthalen-2-yl)-n-propylamino]benzoic acid] | – | – | EC50 [2]: > 1000 nM |
| CCCN(c1ccc(C(=O)O)cc1)c1cc2c(cc1OCc1ccccc1)C(C)(C)CC=C2C(C)C [Compound 157] | – | – | EC50 [6]: > 1000 nM |

Further lines, with some results ahead:

| Ki [3] [nM] | EC50 [4] [nM] | Structure (SMILES) | also measured |
| --- | --- | --- | --- |
| – | > 1000 | Cc1cc2c(cc1N(C)c1ccc(C(=O)O)cc1)C(C)(C)CC=C2C(C)C [Compound 52, 4-[Methyl-(5-isopropyl-3,8,8-trimethyl-7,8-dihydronaphthalen-2-yl)amino]benzoic acid] | – |
| > 1000 | > 1000 | CCN(c1ccc(C(=O)O)cc1)c1cc2c(cc1C)C(C(C)C)=CCC2(C)C [Compound 53] | – |
| > 1000 | > 1000 | CCCN(c1ccc(C(=O)O)cc1)c1cc2c(cc1C)C(C(C)C)=CCC2(C)C [Compound 54, 4-[n-Propyl-(5-isopropyl-3,8,8-trimethyl-7,8-dihydronaphthalen-2-yl)lamino]benzoic acid] | – |
